Data reported in the NIST ThermoML archive (doi:10.1016/j.jct.2011.01.013).
± gives the expanded uncertainty stated by the source.

Assay: mn = molality of the nth substance listed, in mol/kg
Settings: 298.15 K, 101 kPa, Liquid; for viscosity: Capillary tube (Ostwald / Ubbelohde) method; for speed of sound: Sing-around technique in a fixed-path interferometer; for mass density: Vibrating tube method

CCCCCCCCOS(=O)(=O)[O-].CCCCn1cc[n+](C)c1 [1-butyl-3-methylimidazolium octyl sulfate] + O
Settings | mass density [kg/m3] | speed of sound [m/s] | viscosity [mPa·s]
m1 = 0.008 | 997.23 ± 0.4 | 1498.5 ± 0.9 | –
m1 = 0.00921 | – | – | 0.9054 ± 0.008
m1 = 0.0148 | 997.38 ± 0.4 | 1500.1 ± 0.9 | –
m1 = 0.01899 | – | – | 0.9173 ± 0.008
m1 = 0.0215 | 997.53 ± 0.4 | 1501.6 ± 1 | –
m1 = 0.02803 | – | – | 0.9278 ± 0.0081
m1 = 0.0301 | 997.72 ± 0.4 | 1503.6 ± 1 | –
m1 = 0.035 | 997.83 ± 0.4 | 1504.7 ± 1 | –
m1 = 0.03646 | – | – | 0.9388 ± 0.0081
m1 = 0.0423 | 997.99 ± 0.4 | 1506.2 ± 1 | –
m1 = 0.04596 | – | – | 0.9507 ± 0.0082
m1 = 0.0492 | 998.14 ± 0.4 | 1506.9 ± 1 | –
m1 = 0.05551 | – | – | 0.9615 ± 0.0082
m1 = 0.06482 | – | – | 0.9748 ± 0.0082
m1 = 0.0668 | 998.52 ± 0.4 | 1507.5 ± 1 | –
m1 = 0.07522 | – | – | 0.9873 ± 0.0083
m1 = 0.08499 | – | – | 0.9986 ± 0.0083
m1 = 0.0888 | 998.99 ± 0.4 | 1508.1 ± 1 | –
m1 = 0.0981 | – | – | 1.015 ± 0.0084
m1 = 0.1542 | 1000.35 ± 0.41 | 1509.5 ± 1 | –
m1 = 0.2466 | 1002.19 ± 0.41 | 1511.6 ± 1 | –
m1 = 0.3369 | 1003.92 ± 0.41 | 1513.9 ± 1 | –

CCCCn1cc[n+](C)c1.[Cl-] [1-butyl-3-methylimidazolium chloride] + O
Settings | mass density [kg/m3] | speed of sound [m/s] | viscosity [mPa·s]
m1 = 0.0123 | 997.21 ± 0.4 | 1498.3 ± 0.9 | –
m1 = 0.01554 | – | – | 0.8981 ± 0.008
m1 = 0.01952 | – | – | 0.9005 ± 0.008
m1 = 0.02 | 997.31 ± 0.4 | 1499.3 ± 0.9 | –
m1 = 0.0252 | – | – | 0.9024 ± 0.008
m1 = 0.0279 | 997.41 ± 0.4 | 1500.3 ± 0.9 | –
m1 = 0.0349 | 997.5 ± 0.4 | 1501.2 ± 0.9 | –
m1 = 0.03495 | – | – | 0.9062 ± 0.008
m1 = 0.0404 | 997.57 ± 0.4 | 1501.9 ± 0.9 | –
m1 = 0.04454 | – | – | 0.9101 ± 0.008
m1 = 0.05402 | – | – | 0.9143 ± 0.008
m1 = 0.0624 | 997.85 ± 0.4 | 1504.8 ± 1 | –
m1 = 0.06772 | – | – | 0.9197 ± 0.008
m1 = 0.08128 | – | – | 0.9258 ± 0.0081
m1 = 0.09508 | – | – | 0.9323 ± 0.0081
m1 = 0.107 | 998.41 ± 0.4 | 1510.6 ± 1 | –
m1 = 0.1132 | – | – | 0.9412 ± 0.0081
m1 = 0.1175 | 998.54 ± 0.4 | 1512 ± 1 | –
m1 = 0.1296 | 998.69 ± 0.4 | 1513.5 ± 1 | –
m1 = 0.1521 | 998.97 ± 0.4 | 1516.5 ± 1 | –
m1 = 0.1677 | 999.16 ± 0.4 | 1518.6 ± 1 | –
m1 = 0.1852 | 999.38 ± 0.4 | 1520.9 ± 1 | –
m1 = 0.2113 | 999.7 ± 0.4 | 1524.3 ± 1 | –
m1 = 0.236 | 1000.01 ± 0.41 | 1527.6 ± 1 | –
m1 = 0.2591 | 1000.29 ± 0.41 | 1530.7 ± 1 | –
m1 = 0.2718 | 1000.45 ± 0.41 | 1532.4 ± 1 | –

CCCCCCCC[n+]1ccn(C)c1.F[B-](F)(F)F [1-methyl-3-octylimidazolium tetrafluoroborate] + O
Settings | mass density [kg/m3] | speed of sound [m/s] | viscosity [mPa·s]
m1 = 0.00225 | – | – | 0.8929 ± 0.0079
m1 = 0.0045 | 997.19 ± 0.4 | 1497.4 ± 0.9 | –
m1 = 0.0058 | 997.23 ± 0.4 | 1497.5 ± 0.9 | –
m1 = 0.0077 | 997.29 ± 0.4 | 1497.8 ± 0.9 | –
m1 = 0.00773 | – | – | 0.8974 ± 0.008
m1 = 0.01093 | – | – | 0.8997 ± 0.008
m1 = 0.0112 | 997.4 ± 0.4 | 1498.3 ± 0.9 | –
m1 = 0.01518 | – | – | 0.9029 ± 0.008
m1 = 0.017 | 997.58 ± 0.4 | 1499 ± 0.9 | –
m1 = 0.01948 | – | – | 0.9059 ± 0.008
m1 = 0.0196 | 997.66 ± 0.4 | 1499.4 ± 0.9 | –
m1 = 0.0235 | 997.78 ± 0.4 | 1499.9 ± 0.9 | –
m1 = 0.02476 | – | – | 0.9094 ± 0.008
m1 = 0.0264 | 997.87 ± 0.4 | 1500.3 ± 0.9 | –
m1 = 0.0311 | – | – | 0.914 ± 0.008
m1 = 0.0369 | 998.19 ± 0.4 | 1501.7 ± 1 | –
m1 = 0.03923 | – | – | 0.9201 ± 0.008
m1 = 0.0428 | 998.37 ± 0.4 | 1502.5 ± 1 | –
m1 = 0.0454 | 998.45 ± 0.4 | 1502.9 ± 1 | –
m1 = 0.04705 | – | – | 0.9255 ± 0.0081
